For one series, the target named is T1, human meprin α (Homo sapiens, UniProt Q16819).
T1 sequence (Q16819 66-746): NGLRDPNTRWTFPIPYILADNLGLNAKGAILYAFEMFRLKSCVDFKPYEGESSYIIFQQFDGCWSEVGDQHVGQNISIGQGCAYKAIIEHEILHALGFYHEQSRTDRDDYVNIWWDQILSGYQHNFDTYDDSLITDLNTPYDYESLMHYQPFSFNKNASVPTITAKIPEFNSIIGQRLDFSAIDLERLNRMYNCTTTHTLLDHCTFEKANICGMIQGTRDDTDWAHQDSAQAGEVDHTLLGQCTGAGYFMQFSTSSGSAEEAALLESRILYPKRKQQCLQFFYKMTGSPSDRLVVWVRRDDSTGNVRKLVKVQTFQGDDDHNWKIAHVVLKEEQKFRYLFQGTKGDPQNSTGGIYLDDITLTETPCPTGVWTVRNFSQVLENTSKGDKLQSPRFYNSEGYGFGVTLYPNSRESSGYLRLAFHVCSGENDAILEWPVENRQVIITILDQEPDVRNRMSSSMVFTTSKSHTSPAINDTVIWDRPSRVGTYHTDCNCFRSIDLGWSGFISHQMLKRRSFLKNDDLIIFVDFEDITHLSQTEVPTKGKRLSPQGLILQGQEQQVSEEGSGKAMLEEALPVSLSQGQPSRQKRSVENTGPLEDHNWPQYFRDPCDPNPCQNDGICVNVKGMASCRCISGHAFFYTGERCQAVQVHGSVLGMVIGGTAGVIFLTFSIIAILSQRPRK
The class given is biochemical. Particulars: for Ki: Ki(app) Meprin α, geometric mean of three independent experiments with standard deviation factor; for SF: selectivity factor (Ki(app) meprin β/Ki(app) meprin α): meprin α over meprin β.

A further series has as its target T2, MMP2 (Homo sapiens, UniProt P08253).
T2 sequence (P08253 110-660): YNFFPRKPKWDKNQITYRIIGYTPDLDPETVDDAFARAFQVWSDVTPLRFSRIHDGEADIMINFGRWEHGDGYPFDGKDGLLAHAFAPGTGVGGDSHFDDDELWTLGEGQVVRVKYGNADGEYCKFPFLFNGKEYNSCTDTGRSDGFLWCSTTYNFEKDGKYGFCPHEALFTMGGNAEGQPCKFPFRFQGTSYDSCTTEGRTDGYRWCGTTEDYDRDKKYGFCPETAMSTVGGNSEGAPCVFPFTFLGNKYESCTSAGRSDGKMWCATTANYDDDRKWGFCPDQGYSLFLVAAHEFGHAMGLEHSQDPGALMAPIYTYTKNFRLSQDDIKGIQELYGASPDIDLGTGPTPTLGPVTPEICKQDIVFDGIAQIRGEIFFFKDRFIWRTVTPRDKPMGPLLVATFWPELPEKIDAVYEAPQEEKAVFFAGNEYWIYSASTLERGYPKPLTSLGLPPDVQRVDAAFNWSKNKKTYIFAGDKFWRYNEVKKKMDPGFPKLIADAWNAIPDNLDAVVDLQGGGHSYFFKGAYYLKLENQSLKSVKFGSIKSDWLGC
Put plainly: Off-target metalloprotease inhibition, MMP2. It is filed as biochemical. Particulars: for remaining activity at 10 µM: read-out: Residual activity MMP2.

A further series concerns the target MMP9 (Homo sapiens, UniProt P14780). Nature of the series: Off-target metalloprotease inhibition, MMP9. The class given is biochemical. Particulars: read-out: Residual activity MMP9.
The target of the next series is MMP13 (Homo sapiens, UniProt P45452). Nature of the series: Off-target metalloprotease inhibition, MMP13. It is filed as biochemical. Particulars: read-out: Residual activity MMP13.
For a further series, the target named is T3, ADAM10 (Homo sapiens, UniProt O14672).
T3 sequence (O14672 214-748): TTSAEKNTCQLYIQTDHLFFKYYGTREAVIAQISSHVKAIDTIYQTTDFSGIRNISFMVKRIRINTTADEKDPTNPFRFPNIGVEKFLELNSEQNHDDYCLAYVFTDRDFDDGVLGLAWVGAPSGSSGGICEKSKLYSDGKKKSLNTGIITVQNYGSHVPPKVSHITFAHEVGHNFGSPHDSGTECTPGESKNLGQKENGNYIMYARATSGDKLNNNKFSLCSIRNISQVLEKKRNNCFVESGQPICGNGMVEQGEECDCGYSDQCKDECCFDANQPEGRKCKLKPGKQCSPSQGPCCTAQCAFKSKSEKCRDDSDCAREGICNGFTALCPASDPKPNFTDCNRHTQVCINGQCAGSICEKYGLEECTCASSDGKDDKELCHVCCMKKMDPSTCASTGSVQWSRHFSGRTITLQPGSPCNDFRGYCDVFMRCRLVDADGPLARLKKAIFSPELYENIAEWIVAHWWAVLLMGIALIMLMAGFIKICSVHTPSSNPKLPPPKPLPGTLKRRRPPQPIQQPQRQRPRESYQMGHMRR
Nature of the series: Off-target metalloprotease inhibition, ADAM10. It is filed as biochemical. Particulars: for remaining activity at 10 µM: read-out: Residual activity ADAM10.

The target of the next series is ADAM17 (Homo sapiens, UniProt P78536). Put plainly: Off-target metalloprotease inhibition, ADAM17. It is filed as biochemical. Particulars: for remaining activity at 10 µM: read-out: Residual activity ADAM17.
Sequence of ADAM17 (P78536 215-824): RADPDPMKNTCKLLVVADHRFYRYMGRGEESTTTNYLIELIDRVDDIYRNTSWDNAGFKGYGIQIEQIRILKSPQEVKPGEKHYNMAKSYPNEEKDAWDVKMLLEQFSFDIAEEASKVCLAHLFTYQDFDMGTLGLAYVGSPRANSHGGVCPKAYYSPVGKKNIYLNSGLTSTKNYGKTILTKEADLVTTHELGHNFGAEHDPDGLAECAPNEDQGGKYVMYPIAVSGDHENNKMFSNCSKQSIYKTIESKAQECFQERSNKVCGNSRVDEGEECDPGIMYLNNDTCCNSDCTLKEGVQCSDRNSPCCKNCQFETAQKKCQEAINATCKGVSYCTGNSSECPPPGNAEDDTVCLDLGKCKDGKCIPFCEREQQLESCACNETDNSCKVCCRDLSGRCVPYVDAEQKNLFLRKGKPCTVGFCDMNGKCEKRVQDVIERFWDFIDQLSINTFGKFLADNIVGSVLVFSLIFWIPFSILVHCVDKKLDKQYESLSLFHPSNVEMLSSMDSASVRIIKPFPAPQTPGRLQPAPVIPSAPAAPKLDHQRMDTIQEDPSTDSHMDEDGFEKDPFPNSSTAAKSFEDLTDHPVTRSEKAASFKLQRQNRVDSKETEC
Series [1] can be described thus: Cell viability assay. It is filed as cell-based. Particulars: human, Hep-G2 cells.
Series [2] is described as follows: Cell viability assay. It is filed as cell-based. Particulars: human, SH-SY5Y cells.
A further series concerns the target T4, human meprin β (Homo sapiens, UniProt Q16820).
T4 sequence (Q16820 62-701): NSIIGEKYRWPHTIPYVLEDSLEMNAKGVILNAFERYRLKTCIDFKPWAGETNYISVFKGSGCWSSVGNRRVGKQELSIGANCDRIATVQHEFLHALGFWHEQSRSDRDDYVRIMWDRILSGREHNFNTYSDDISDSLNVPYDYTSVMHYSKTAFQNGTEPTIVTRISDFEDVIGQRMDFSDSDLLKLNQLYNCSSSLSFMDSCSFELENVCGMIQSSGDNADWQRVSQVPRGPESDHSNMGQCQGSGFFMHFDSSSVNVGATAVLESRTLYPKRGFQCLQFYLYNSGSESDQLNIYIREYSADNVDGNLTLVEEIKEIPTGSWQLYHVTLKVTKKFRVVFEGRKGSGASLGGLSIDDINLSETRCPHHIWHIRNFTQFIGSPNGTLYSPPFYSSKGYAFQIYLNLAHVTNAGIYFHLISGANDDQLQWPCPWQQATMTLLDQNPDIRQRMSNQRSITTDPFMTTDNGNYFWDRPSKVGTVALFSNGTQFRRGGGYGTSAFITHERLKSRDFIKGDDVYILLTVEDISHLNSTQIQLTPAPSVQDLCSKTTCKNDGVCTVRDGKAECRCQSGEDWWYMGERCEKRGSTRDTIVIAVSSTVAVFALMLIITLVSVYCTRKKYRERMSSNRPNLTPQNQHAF
The class given is biochemical. Particulars: for Ki: Ki(app) Meprin β, geometric mean of three independent experiments with standard deviation factor.

Sequence of MMP9 (P14780 107-707 limits assumed): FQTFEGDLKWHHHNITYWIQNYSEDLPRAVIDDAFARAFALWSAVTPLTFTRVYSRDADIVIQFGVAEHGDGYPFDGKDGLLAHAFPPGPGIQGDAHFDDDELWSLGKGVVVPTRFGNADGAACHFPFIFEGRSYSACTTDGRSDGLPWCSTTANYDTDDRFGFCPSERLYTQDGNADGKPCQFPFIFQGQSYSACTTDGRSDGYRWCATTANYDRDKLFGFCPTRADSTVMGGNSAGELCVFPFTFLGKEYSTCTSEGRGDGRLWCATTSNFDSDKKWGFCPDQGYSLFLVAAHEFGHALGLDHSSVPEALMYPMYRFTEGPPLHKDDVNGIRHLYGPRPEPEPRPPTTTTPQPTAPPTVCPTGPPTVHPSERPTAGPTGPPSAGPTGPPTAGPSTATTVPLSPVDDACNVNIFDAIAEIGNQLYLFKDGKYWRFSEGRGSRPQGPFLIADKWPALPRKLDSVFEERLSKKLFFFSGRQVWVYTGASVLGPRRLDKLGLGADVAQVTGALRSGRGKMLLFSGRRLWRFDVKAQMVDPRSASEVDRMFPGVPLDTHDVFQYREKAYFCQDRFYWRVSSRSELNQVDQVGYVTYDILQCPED

One may read the IC50 as the concentration that inhibits the measured activity by half. High values mean weaker potency in that assay, low ones greater potency in that assay. By viability is commonly meant a read-out of living cells in per cent, often relative to untreated cells. `O=C(Cc1c(-c2ccc3c(c2)OCO3)n[nH]c1-c1ccccc1)NO` [14f, 2-[3-(1,3-Benzodioxol-5-yl)-5-phenyl-1H-pyrazol-4-yl]ethanehydroxamic acid] registered a Ki on human meprin α of 0.0011 µM. Moreover, on human meprin α, the “SF: selectivity factor (Ki(app) meprin β/Ki(app) meprin α)” value (“SF: selectivity factor” for short) came out at 99. For the same compound, the IC50 came out at 5.3 µM at MMP2, 13.9 µM at ADAM10 and 7.4 µM on ADAM17. Further, the remaining activity at 10 µM on MMP2 worked out at 41%; at MMP9 it was 72%; at MMP13, 71%; on ADAM10, 59%; on ADAM17, 51%. The results for the viability at 24 h, 30 µM in the series “Cell viability assay [1]” and in the series “Cell viability assay [2]” were 96% and 90%, respectively.
At human meprin α, `O=C(Cc1c(-c2ccc3c(c2)OCO3)n[nH]c1-c1ccc2c(c1)OCO2)NO` [16a, 2-[3,5-Bis(1,3-benzodioxol-5-yl)-1H-pyrazol-4-yl]ethanehydroxamic acid] registered a Ki of 0.0006 µM. The remaining activity at 10 µM came out at 63% at MMP9, 62% on ADAM10 and 57% on ADAM17. The results for the IC50 on ADAM10 and on ADAM17 were 12 µM and 9.6 µM, respectively.
As for `O=C(Cc1c(-c2ccccc2)nn(Cc2ccc3c(c2)OCO3)c1-c1ccccc1)NO` [21f, 2-[1-(1,3-Benzodioxol-5-ylmethyl)-3,5-diphenyl-pyrazol-4-yl]ethanehydroxamic acid], the Ki at human meprin α was 0.0006 µM. Moreover, the “SF: selectivity factor” value on human meprin α stood at 508. In addition, the remaining activity at 10 µM was determined as 77% at MMP2; 74% at MMP9; 78% on MMP13; 69% at ADAM10; 21% at ADAM17. The same compound registered an IC50 against ADAM17 of 2.3 µM. For the same compound, the viability at 24 h, 30 µM was determined as 103% in the series “Cell viability assay [1]” and 88% in the series “Cell viability assay [2]”.
Take `COc1ccc(-c2n[nH]c(-c3ccccc3)c2CC(=O)NO)cc1OC` [14g, 2-[3-(3,4-Dimethoxyphenyl)-5-phenyl-1H-pyrazol-4-yl]ethanehydroxamic acid]: at human meprin α, the Ki was 0.0007 µM. Further, the “SF: selectivity factor” value at human meprin α came out at 117. Besides, the remaining activity at 10 µM at MMP2 was 83%; at MMP9, 90%; at MMP13 it was 101%; at ADAM10, 87%; at ADAM17, 65%. Moreover, the viability at 24 h, 30 µM in the series “Cell viability assay [1]” is 99%; in the series “Cell viability assay [2]” it was 85%.
As for `COc1cccc(-c2n[nH]c(-c3ccccc3)c2CC(=O)NO)c1` [14d, 2-[3-(3-Methoxyphenyl)-5-phenyl-1H-pyrazol-4-yl]ethanehydroxamic acid], the Ki at human meprin α turned out to be 0.0011 µM. Also, at human meprin α, the “SF: selectivity factor” value is 105. For the same compound, the remaining activity at 10 µM at MMP2 was 78%; at MMP9 it was 80%; on MMP13 it was 85%; on ADAM10, 68%; at ADAM17 it was 52%. In addition, half-maximal inhibition at ADAM17 (IC50) was put at 11.6 µM. Also, the viability at 24 h, 30 µM in “Cell viability assay [1]” is 104%; in “Cell viability assay [2]”, 84%.
On to `O=C(Cc1c(-c2ccccc2)nn(-c2ccc(C(=O)O)cc2)c1-c1ccccc1)NO` [21d, 4-[4-[2-(Hydroxyamino)-2-oxo-ethyl]-3,5-diphenyl-pyrazol-1-yl]benzoic acid], for which, on human meprin α, the Ki was 0.004 µM and the “SF: selectivity factor” value was found to be 46. On human meprin β, this compound returned a Ki of 0.182 µM. Besides, the “increased inhibition of meprin β by factor” value on human meprin β (in comparison to the N-phenyl pyrazole 21b) amounted to 3.
In the case of `O=C(Cc1c(-c2cccc(C(=O)O)c2)[nH]nc1[C@H]1CC[C@@H](C(=O)O)CC1)NO` [16m, 3-[3-(Cis-4-Carboxycyclohexyl)-4-[2-(hydroxyamino)-2-oxo-ethyl]-1H-pyrazol-5-yl]benzoic acid], at human meprin α, the Ki turned out to be 0.021 µM and the “SF: selectivity factor” value stood at 0.7. Besides, the Ki at human meprin β turned out to be 0.0145 µM.
On to `O=C(Cc1c([C@H]2CCCC[C@H]2C(=O)O)n[nH]c1-c1ccccc1)NO` (relative stereo) [14q, Cis-2-[4-[2-(hydroxyamino)-2-oxo-ethyl]-5-phenyl-1H-pyrazol-3-yl]cyclohexanecarboxylic acid], for which, on human meprin α, the Ki amounted to 0.0003 µM and the “SF: selectivity factor” value is reported as 127. On human meprin β, this compound came in with a Ki of 0.0326 µM.
Turning to `Cn1nc(-c2ccccc2)c(CC(=O)NO)c1-c1ccccc1` [21a, 2-(1-Methyl-3,5-diphenyl-pyrazol-4-yl)ethanehydroxamic acid], on human meprin α, the Ki was 0.005 µM and the “SF: selectivity factor” value came to 87. On human meprin β, this compound showed a Ki of 0.437 µM.
`O=C(Cc1c([C@@H]2CCCC[C@@H]2C(=O)O)n[nH]c1-c1cccc(C(=O)O)c1)NO` (relative stereo) [16k, 3-[4-[2-(Hydroxyamino)-2-oxo-ethyl]-3-[cis-2-carboxycyclohexyl]-1H-pyrazol-5-yl]benzoic acid]: on human meprin α, the Ki turned out to be 0.0004 µM and the “SF: selectivity factor” value came to 13. The compound also registered a Ki on human meprin β of 0.0052 µM.
In the case of `O=C(Cc1c(-c2cccc(C(=O)O)c2)n[nH]c1-c1cccc(C(=O)O)c1)NO` [16b, 3-[3-(3-Carboxyphenyl)-4-[2-(hydroxyamino)-2-oxo-ethyl]-1H-pyrazol-5-yl]benzoic acid], the “SF: selectivity factor” value on human meprin α is 1. At human meprin β, the Ki turned out to be 0.0145 µM.
Turning to `O=C(Cc1c(-c2ccccc2)nn(-c2ccccc2)c1-c1ccccc1)NO` [21b, 2-(1,3,5-Triphenylpyrazol-4-yl)ethanehydroxamic acid], the Ki on human meprin α came out at 0.004 µM; at human meprin β, 0.667 µM. Besides, the “SF: selectivity factor” value at human meprin α is on record as 167.

Values taken from publication PMC9870012 (Journal of Enzyme Inhibition and Medicinal Chemistry, 2023).
